Measurements as given in PubChem BioAssay (NCI).
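Protocol summary: plate cells (96-well), add compound at 5 concentrations, incubate 48 h, interpolate endpoints linearly. The concentration for full growth arrest is given as TGI.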

Columns and labels:
Experiment in all cases: growth of human tumour cells (NCI), 48 h
[1] = system: A549 NSCLC
[2] = system: HCT-116 colon
[3] = system: HOP-92 NSCLC
[4] = system: HS 578T breast
[5] = system: HT29 colon
[6] = system: NCI-H522 lung
[7] = system: OVCAR-8 ovarian
[8] = system: RXF 393 renal
[9] = system: SF-295 CNS
[10] = system: SN12C renal
[11] = system: SNB-19 CNS
[12] = system: SW-620 colon
[13] = system: UACC-257 melanoma
[14] = system: UACC-62 melanoma
[15] = system: UO-31 renal
[16] = system: CCRF-CEM leukemia

| Compound | TGI [1] | TGI [2] | TGI [3] | TGI [4] | TGI [5] | TGI [6] | TGI [7] | TGI [8] | TGI [9] | TGI [10] | TGI [11] | TGI [12] | TGI [13] | TGI [14] | TGI [15] | TGI [16] |
| --- | --- | --- | --- | --- | --- | --- | --- | --- | --- | --- | --- | --- | --- | --- | --- | --- |
| CC[C@H](C)[C@H](NC(=O)[C@H](Cc1ccc(O)cc1)NCC(F)(F)F)C(=O)OC(C)(C)C | 13 µM | 16.6 µM | 18.8 µM | 31.5 µM | 16.3 µM | 20.1 µM | 29.8 µM | 17.7 µM | 15.2 µM | 17.3 µM | 15.8 µM | 23 µM | 14.7 µM | 12.9 µM | 14.8 µM |  |
| C=CC(Br)(CBr)CCC1OC1(C)C (stereo unspecified) | 64.3 µM | 30.7 µM | 28.2 µM | 37.6 µM | 32.8 µM | 34.1 µM |  | 21.4 µM | 32 µM | 30.5 µM | 32.7 µM | 26.8 µM | 27.7 µM |  | 32.8 µM | > 100 µM |
| CN1CCC2(CC1)C(=O)N(NC(N)=O)C(=O)C2c1ccccc1 (stereo unspecified) | > 100 µM | > 100 µM |  | > 100 µM | > 100 µM |  | > 100 µM | > 100 µM | > 100 µM | > 100 µM | > 100 µM | > 100 µM | > 100 µM | > 100 µM | > 100 µM | > 100 µM |
| CC1(C)CCCCC1/C=C/C(CC(O)(C(F)(F)F)C(F)(F)F)=N\Nc1ccc([N+](=O)[O-])cc1[N+](=O)[O-] (stereo unspecified) | 3.59 µM | 6.2 µM |  | 40.6 µM | 11.3 µM | 13.1 µM | 14.7 µM | 1.85 µM | 9.01 µM | 31.7 µM | 19 µM | 11.4 µM | 7.55 µM | 13.9 µM | 4.15 µM | 4.91 µM |
| CCN1CCC(O)(/C=C/c2cccc(C)c2)C(C(=O)/C=C/c2cccc(C)c2)C1 (stereo unspecified) | 5.97 µM | 6.13 µM | 7.56 µM | 4.97 µM | 3.18 µM | 4.65 µM | 10.4 µM | 3.57 µM | 4.51 µM | 7.04 µM | 15.4 µM | 7.38 µM | 7.31 µM | 3.54 µM | 3.06 µM |  |
| CC(=O)OC12c3ccccc3C(c3ccccc31)C1C(=O)N(c3ccccc3O)C(=O)C12 (stereo unspecified) | > 100 µM | > 100 µM |  | > 100 µM | > 100 µM |  | > 100 µM | > 100 µM | > 100 µM | > 100 µM | > 100 µM | > 100 µM | > 100 µM |  | > 100 µM | > 100 µM |
| CO[C@@H]1C[C@H]2[C@@H]3CC[C@H]([C@@H](C)COC(C)=O)[C@@]3(C)CC[C@@H]2[C@@]2(C)CC[C@H]3C[C@]312 | 37.3 µM | 22.2 µM | 35.2 µM | 39.5 µM | 19.9 µM | 33.2 µM | 24.7 µM | 35.7 µM | 28.3 µM | 32.1 µM | 31.7 µM | 27.3 µM | 24.4 µM |  | 32.4 µM | 40.7 µM |
| O=C(OC1C#CCSCC#C/C=C\1)c1cnc2ccccc2n1 (stereo unspecified) |  | > 100 µM | > 100 µM | > 100 µM | > 100 µM | > 100 µM | > 100 µM | > 100 µM | > 100 µM | > 100 µM | > 100 µM | > 100 µM | > 100 µM | > 100 µM | > 100 µM | > 100 µM |
